Values quoted from earlier work in patent US20050255458A1, “Drug discovery assays based on the biology of chronic disease” (priority 2002, published 2005).
Read-outs that look alike come from different tables or passages of the source.

Tests used:
[1] = drinking water, 4 months, vs untreated obese (fa/fa); cited from earlier work
[2] = tested on: MDAY-D2 tumor; conditions: 500 μg daily s.c., cited from earlier work
[3] = tested on: NF-κB; conditions: cited from earlier work
[4] = tested on: DC; conditions: inhaled; cited from earlier work
[5] = tested on: NF-κB; conditions: various cells and tissues; cited from earlier work
[6] = tested on: ERK; conditions: cited from earlier work
[7] = tested on: Elk-1; conditions: Peterziel 1999; cited from earlier work
[8] = tested on: AR gene; conditions: cited from earlier work
[9] = tested on: hair follicles (onset of anagen); conditions: topical 10 nmol twice weekly, female CD-1 mice; cited from earlier work
[10] = tested on: sebocytes; conditions: 10^−6 M, cited from earlier work
[11] = tested on: AU565 breast carcinoma cells; conditions: cited from earlier work
[12] = tested on: ML-1 human myeloblastic leukemic cells; conditions: cited from earlier work
[13] = tested on: ERK; conditions: cited from earlier work; remark: listed apart in the source
[14] = tested on: abdominal subcutaneous adipocytes; conditions: obese vs non-obese (Hellstrom 2000); cited from earlier work
[15] = tested on: endogenous AR gene; conditions: 10^−8 M, cited from earlier work
[16] = tested on: TF; conditions: cited from earlier work
[17] = tested on: TF; conditions: cited from earlier work; remark: listed apart in the source
[18] = biological target: T1, ACE (Mesocricetus auratus, UniProt Q50JE5); conditions: cited from earlier work
T1 construct: from tissue; host or cells: whole animal, in vivo (hamster)
T1 sequence (Q50JE5 36-1314): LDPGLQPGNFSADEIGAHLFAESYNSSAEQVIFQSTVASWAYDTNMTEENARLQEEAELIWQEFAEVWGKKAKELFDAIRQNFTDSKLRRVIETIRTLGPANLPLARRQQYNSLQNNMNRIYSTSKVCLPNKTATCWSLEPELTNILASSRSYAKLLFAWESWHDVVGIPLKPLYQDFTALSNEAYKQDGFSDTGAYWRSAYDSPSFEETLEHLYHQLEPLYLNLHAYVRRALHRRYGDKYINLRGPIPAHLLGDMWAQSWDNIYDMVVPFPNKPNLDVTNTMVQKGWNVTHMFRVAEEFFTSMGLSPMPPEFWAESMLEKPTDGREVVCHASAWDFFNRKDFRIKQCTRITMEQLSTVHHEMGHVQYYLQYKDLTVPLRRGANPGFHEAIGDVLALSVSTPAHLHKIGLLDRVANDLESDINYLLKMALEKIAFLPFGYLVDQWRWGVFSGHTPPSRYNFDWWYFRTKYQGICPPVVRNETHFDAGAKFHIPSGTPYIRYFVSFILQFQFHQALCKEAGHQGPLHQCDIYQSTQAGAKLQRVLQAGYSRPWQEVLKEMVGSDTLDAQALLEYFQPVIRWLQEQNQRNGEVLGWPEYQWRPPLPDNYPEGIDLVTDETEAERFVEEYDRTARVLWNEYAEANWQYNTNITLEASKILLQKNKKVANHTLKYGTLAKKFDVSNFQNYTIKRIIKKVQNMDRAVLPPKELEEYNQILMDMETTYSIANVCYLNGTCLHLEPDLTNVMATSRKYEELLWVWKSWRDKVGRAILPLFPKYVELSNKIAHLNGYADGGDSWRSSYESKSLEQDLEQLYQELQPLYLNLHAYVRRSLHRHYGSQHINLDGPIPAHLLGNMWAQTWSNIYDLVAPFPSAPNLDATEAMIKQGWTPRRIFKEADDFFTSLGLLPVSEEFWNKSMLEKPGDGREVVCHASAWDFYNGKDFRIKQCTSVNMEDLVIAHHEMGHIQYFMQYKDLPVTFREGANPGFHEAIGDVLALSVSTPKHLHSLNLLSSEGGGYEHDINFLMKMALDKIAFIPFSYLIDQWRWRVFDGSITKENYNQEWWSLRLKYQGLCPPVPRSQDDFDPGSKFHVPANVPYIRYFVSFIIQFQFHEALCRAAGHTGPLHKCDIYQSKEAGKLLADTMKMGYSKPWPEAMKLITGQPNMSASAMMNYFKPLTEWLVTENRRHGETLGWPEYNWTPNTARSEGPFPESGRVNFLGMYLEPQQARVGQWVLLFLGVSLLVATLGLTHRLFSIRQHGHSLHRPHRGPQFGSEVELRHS

[19] = tested on: hamsters on a high-cholesterol diet; conditions: 8 weeks, cited from earlier work
[20] = cited from earlier work
[21] = tested on: tissue factor (TF) gene; conditions: cited from earlier work
[22] = tested on: TF promoter; conditions: cited from earlier work
[23] = tested on: GABP; conditions: Ojuka 2003; cited from earlier work
[24] = tested on: HSV-1; conditions: cited from earlier work

Compound: [Na+].[Na+].[Na+].[O]=[V]([O-])([O-])[O-] [sodium orthovanadate]
- decrease in body weight [1]: 43%
- tumor weights ([2]; day 14, 11 mice with tumors): 0.08 to 0.47 g
- decrease in tumor growth [2]: more than 85%

Compound: CCC(=O)OCC(=O)[C@@]1(OC(=O)CC)[C@@H](C)C[C@H]2[C@@H]3CCC4=CC(=O)C=C[C@]4(C)[C@@]3(Cl)[C@@H](O)C[C@@]21C [beclomethasone dipropionate]
- NF-κB activation [3]: decreases NF-κB activation
- number of DC in asthma [4]: decreased the excessive number of DCs in asthma

Compound: O=C(O)C[C@H](O)C[C@H](O)/C=C/c1c(C2CC2)nc2ccccc2c1-c1ccc(F)cc1 [pitavastatin]
- NF-κB activation [5]: inhibited NF-κB activation

Compound: C[C@]12CCC(=O)C[C@@H]1CC[C@@H]1[C@@H]2CC[C@]2(C)[C@@H](O)CC[C@@H]12 [DHT, Dihydrotestosterone]
- ERK phosphorylation ([6]; LNCaP or PC-3 cells (Guo 2000)): no increase in ERK phosphorylation
- Effect on [ERK^phos] ([6]; LNCaP): ↑[ERK^phos]
- Effect on [ERK^phos] ([6]; primary genital skin fibroblasts): ↑[ERK^phos]
- Effect on [ERK^phos] ([6]; primary prostatic stormal cells): ↑[ERK^phos]
- Elk-1 transcription activity [7]: increase in Elk-1 transcription activity
- AR mRNA half life ([8]; LNCaP): Increased mRNA half life
- AR transcription in run-on assays ([8]; LNCaP): Decreased transcription
- Effect on [mRNAAR] ([8]; LNCaP): ↓[mRNAAR]
- AR mRNA half life ([8]; MDA453): Decreased mRNA half life
- AR transcription in run-on assays ([8]; MDA453): No change in run-on
- Effect on [mRNAAR] ([8]; MDA453): ↓[mRNAAR]
- delay in hair regrowth [9]: 3-4 week
- decrease in DNA synthesis (^3H-thymidine uptake) ([10]; vs untreated): 40%
- sebocyte differentiation (lipid accumulation) ([10]; statistically insignificant): small increase

Compound: COc1cccc(-c2cc(=O)c3ccccc3o2)c1N [PD98059]
- effect on HRGβ1-induced cell growth arrest ([11]; 0-10 μM PD98059): dose-dependently reversed
- cell differentiation ([11]; HRGβ1 alone, PD98059 as pretreatment): dose-dependently inhibited
- ML-1 proliferation with TPA ([12]; 10 μM PD98059 with 0.3 ng/ml TPA): continued to proliferate
- decrease in TPA-stimulated ERK2 activity ([12]; 1 h): 2 fold
- decrease in TPA-stimulated ERK2 activity ([12]; 3 h): 10 fold

Compound: CCCC(=O)Nc1ncnc2c1ncn2[C@@H]1O[C@@H]2COP(=O)(O)O[C@H]2[C@H]1OC(=O)CCC [dibutyryl cAMP, dibutyryl cyclic AMP]
- ERK activation ([13]; adipocytes): activated ERK
- decrease in maximum induced glycerol release [14]: 50%

Compound: C[C@]1(O)CC[C@H]2[C@@H]3CCC4=CC(=O)CCC4=C3C=C[C@@]21C [R1881, methyltrienolone]
- transcription of endogenous AR gene ([15]; 8 hours): 85 % of control
- transcription of endogenous AR gene ([15]; 24 hours): 73 % of control
- Effect on [ERK^phos] ([6]; PMC42 human breast cancer cells): ↑[ERK^phos]
- Effect on [mRNAAR] ([8]; LNCaP): ↓[mRNAAR]

Compound: C[C@H](CS)C(=O)N1CCC[C@H]1C(=O)O [captopril]
- nuclear translocation of c-Rel/p65 induced by endotoxin ([16]; 20 μg/mL): almost completely inhibited
- TF activity ([16]; dose-dependent): decreased TF activity
- level of TF antigen and mRNA in the cultured cells [17]: decreased the level of TF antigen and mRNA
- decrease in HDL ([18]; 100 mg/kg/day, 6 weeks, vs week 3 and 4): 24%
- number of subendothelial macrophage derived foam cells ([18]; 100 mg/kg/day, after 6 weeks of treatment): 52±9 cell/mm^2
- area of extracellular lipid particles ([18]; after 6 weeks of treatment): 157±36 μm2×1,000
- area of fatty streak ([18]; after 6 weeks of treatment): 55±12 μm2×1,000
- average size of a foam cell ([18]; after 6 weeks of treatment): 89±5 μm^2
- cell size of macrophage derived foam cells [19]: did not change the cell size
- decrease of fatty streak area [19]: 35%
- heart rate [19]: 348±6 beats/min
- mean arterial pressure [19]: 110±5 mm Hg
- subendothelial number of macrophage derived foam cells in the aortic arch [19]: 108±10 cells/mm^2
- plasma total cholesterol ([19]; pravastatin 34, captopril 100 mg/kg/day): did not change plasma lipids

Compound: Nc1nc(O)c2ncn(COC(CO)CO)c2n1 [ganciclovir, Ganciclovir]
- actuarial incidence of TxCAD ([20]; 28 days prophylaxis, follow-up 4.7±1.3 years): 43±8%
- patients who developed TxCAD ([20]; CMV seronegative recipients, 14 patients): 28%

Compound: CC1=C(/C=C/C(C)=C/C=C/C(C)=C/C(=O)O)C(C)(C)CCC1 [ATRA, all-trans retinoic acid]
- TF mRNA ([21]; 10^−5 mol/L, 30 minutes): decrease in TF mRNA
- binding of c-Fos/c-Jun, c-Rel/p65 and Sp1 to their sites ([21]; 10^−5 mol/L, 30 minutes): no change in binding
- rate of TF transcription (run-on) ([21]; LPS 10 μg/ml 1 hour, ATRA 10^−5 mol/L 30 minutes before LPS): decreased TF transcription
- LPS induced increase in LUC transcription ([22]; 30-minute ATRA before 5-hour LPS): no decrease
- LUC activity ([22]; ATRA 10^−5 mol/L, 30 minutes, vs untreated): no decrease in LUC activity

Compound: CC[C@H](C)C(=O)O[C@H]1CCC=C2C=C[C@H](C)[C@H](CC[C@@H]3C[C@@H](O)CC(=O)O3)[C@H]21 [mevastatin]
- NF-κB activation [5]: inhibited NF-κB activation

Compound: O=C1CN(/N=C/c2ccc(-c3ccc([N+](=O)[O-])cc3)o2)C(O)=N1 [dantrolene]
- GABP binding to the N-box [23]: prevented the effect

Compound: Cn1c(=O)c2c(ncn2C)n(C)c1=O [caffeine]
- GABP binding to the N-box [23]: increase of GABP binding

Compound: Nc1nc2c(ncn2COCCO)c(=O)[nH]1 [ACV, aciclovir]
- copy number of latent HSV-1 genomes ([24]; 7 days from first day post infection, day 44, relative to IgG): decreased the copy number of latent HSV-1 genomes

Compound: CC(=O)OCC(CCn1cnc2cnc(N)nc21)COC(C)=O [FCV, famciclovir]
- establishment of viral latency ([24]; 9-10 days treatment early in infection): effective in limiting the establishment of viral latency

Compound: CC(C)NCC(O)c1ccc(O)c(O)c1 (stereo not drawn) [isoprenaline]
- ERK activation ([13]; CHO/K1 cells expressing the human β3AR): activated ERK
- ERK activation ([13]; adipocytes): activated ERK
- decrease in maximum induced glycerol release [14]: 50%
